Seven compounds from patent publication US20140128352A1, “COMPOUNDS AND METHODS FOR MODULATING MITOCHONDRIAL METABOLISM AND REACTIVE OXYGEN SPECIES PRODUCTION” (Buck Institute for Research on Aging, priority 2012, published 2014) can be followed below.

“Also recorded” adds a separate entry of the source.

Common to all, as to type: biochemical, rat
One experiment has as its system site IQ. In words: Retest of IQ ROS production (expanded microplate panel / cuvette). The conditions noted are these: for effect on IQ ROS with subsaturating substrate: subsaturating (0.5 mM) succinate. As to the method:
Compounds identified as site-selective hits as well as structural analogs were re-sourced from ChemBridge and dissolved in DMSO as 80 mM stocks. Master Titration Plates were prepared manually by serially diluting 80 mM compound stocks between 0.08 and 80 mM on 96-well microplates. Four compounds were titrated in duplicate on each plate. Additional DMSO controls were interspersed across these plates to serve as local normalization controls during analysis since two-way median polishing was not appropriate. Just prior to use, compounds were diluted 100-fold with standard buffer (10X). The same known inhibitor positive controls were included on each plate as during high-throughput screening.
The five core ROS assays and single ΔΨm assay were carried out as in the initial high-throughput screen. In addition, several assays were included to help validate the specificity of the compounds for a given site of production. All compounds were titrated against separate assays targeting IQ ROS and IIIQo ROS using subsaturating (0.5 mM final) succinate. […] Specifically, ΔΨm was monitored separately with 5 mM succinate (in the presence of 4 μM rotenone) in addition to glutamate and malate as before. The use of different substrates was designed to reveal compounds that disrupt mitochondrial function in a substrate specific manner.
Most frequently, these changes involved the use of different substrates to supply electrons from an alternative entry point in the chain. If a site of ROS production is being targeted selectively by a compound, then in many cases the supply of electrons should not influence the effectiveness of this compound at suppressing ROS production. […] Alternative conditions are listed below: • 1) IQ ROS: 5 mM succinate with 1 mM glutamate • 2) IF ROS: 5 mM malate only as substrate (in the presence of 4 μM rotenone) • 3) IIIQo ROS: 5 mM succinate (in the presence of 3 mM malonate, 4 uM rotenone, and 2.5 μM antimycin A) • 4) IIIQo ROS: 25 mM glycerol phosphate (in the presence of 1 mM malonate, 4 μM rotenone, and 2.5 μM antimycin A) • 5) SDH: 0.5 mM succinate (in the presence of 4 uM rotenone, 2.5 uM antimycin A, and 2 μM myxothiazol) • 6) GPDH: Vary the concentration of glycerol phosphate in the presence or absence of 250 nM free calcium to allosterically activate GPDH (all in the presence of 4 μM rotenone, 2.5 uM antimycin A, 1 mM malonate, and 2 μM myxothiazol) • 7) ΔΨm: Vary the concentration of glycerol phosphate in the presence or absence of 250 nM free calcium to allosterically activate GPDH and in the presence or absence of 80 ng/mL nigericin (all in the presence of 4 μM rotenone)
The fluorescence values in each well were scaled in relation to the intra-plate DMSO and known inhibitor controls as in the high-throughput screen except that median values for local interspersed DMSO wells (3-6 wells) were used rather than just the 8 DMSO wells in columns 1 and 12. This normalization was applied in place of the two-way median polish used during high-throughput screening to minimize row and column effects. […] At this stage, strong candidates were not necessarily excluded from further testing if subtle off-target effects were observed (e.g. loss of specificity or signs of general inhibition at the highest concentrations). Rather, these candidates were often pursued for more detailed mechanistic studies with the expectation that subsequent structure activity analysis would provide insight into which structurally related compounds would provide the optimal specificity for a given site of production.
Candidate compounds that remained site-selective following robotics assisted retesting were subsequently tested for effects on ROS production and ΔΨm with a Varian Cary Eclipse fluorimeter (excitation 550 nm, emission at 590 nm). This experimental format allows kinetic measurements of ROS production and ΔΨm with more accurate temperature control, sample stirring, and background correction. […]

Experiment [1] relates to mitochondrial membrane potential (ΔΨm). In words: Retest ΔΨm assays (different substrates, with and without nigericin). The conditions noted are these: various substrates. As to the method: The five core ROS assays and single ΔΨm assay were carried out as in the initial high-throughput screen. In addition, several assays were included to help validate the specificity of the compounds for a given site of production. […] The use of different substrates was designed to reveal compounds that disrupt mitochondrial function in a substrate specific manner. […] Most frequently, these changes involved the use of different substrates to supply electrons from an alternative entry point in the chain. If a site of ROS production is being targeted selectively by a compound, then in many cases the supply of electrons should not influence the effectiveness of this compound at suppressing ROS production. […] Candidate compounds that remained site-selective following robotics assisted retesting were subsequently tested for effects on ROS production and ΔΨm with a Varian Cary Eclipse fluorimeter (excitation 550 nm, emission at 590 nm). This experimental format allows kinetic measurements of ROS production and ΔΨm with more accurate temperature control, sample stirring, and background correction. […] Conditions were generally as described for the various microplate assays with the following exceptions: HRP was increased to 5 units/mL, Amplex UltraRed was increased to 50 μM, temperature was always 37° C., samples were continuously stirred, and baseline rates of fluorescence change in the absence of substrate were acquired prior to their addition. Example protocols for cuvette based measurement of site IQ and site IIIQo ROS production are described in Affourtit et al., 2012. […] Biochim. Biophys. Acta. 1777(5): 397-403. An additional advantage of the kinetic cuvette based assays was the ability to perform inline additions to monitor the relative effect of a test compound against multiple conditions in the same cuvette. Therefore, the selectivity of a compound for one site of ROS production can be monitored by adding substrates and select known inhibitors in defined sequences to alternately provide and trap electrons at various sites in the chain. […]

In experiment [2] the test system is mitochondrial respiration. In words: Mitochondrial respiration, Seahorse XF24. The settings on record: complex I, complex II or glycerol phosphate substrates; states 2, 3, 4. On the procedure:
Measurements of ΔΨm described in the previous examples were made under “resting” conditions in which substrates were present but ΔΨm was not coupled to ATP (energy) production by mitochondria. To test the effect of candidate compounds on mitochondrial bioenergetics under energy producing conditions, respiratory coupling parameters were measured in isolated mitochondria in microplate format using a Seahorse XF 24 analyzer (Rogers, G. et al. (2011) High Throughput Microplate Respiratory Measurements Using Minimal Quantities of Isolated Mitochondria. PLoS One. 6(7): e21746). […] ATP synthesis was terminated by injection of oligomycin (0.5 μg/mL) and leak-dependent respiration was measured (state 4o). Finally, the complex III inhibitors antimycin A (2.5 uM) and myxothiazol (2 μM) were injected to terminate respiration. Respiratory profiles were evaluated for signs of inhibition (decreased states 2, 3, or 4o) or uncoupling (increased states 2 or 4o) by candidate compounds. Seahorse XF experiments were performed in a mannitol-sucrose based buffer as described in Rogers et al. 2011. For respiration experiments driven by glycerol phosphate, this buffer was supplemented with CaCl2 to a final free concentration of 250 nM.

Regarding `COc1ccc(Cl)cc1N(Cc1ccccc1)Cc1ccccc1` [Compound 34], the “effect on IQ ROS with subsaturating substrate” value with site IQ (retest) is reported as “consistently increased IQ ROS but only with subsaturating substrate”. In addition, in experiment [1], the “effect on ΔΨm” value was “a consistent increase in ΔΨm was observed independent of both substrate and ΔpH at 8 μM; also recorded: increases ΔΨm at 8 μM but collapses ΔΨm above this concentration”. Regarding `CC1=CC(C)(C)N(Cc2ccc([N+](=O)[O-])cc2)c2ccccc21` [Compound 37], the “effect on IQ ROS with subsaturating substrate” value with site IQ (retest) is “decreased IQ ROS with low substrate; also recorded: lowers site IQ ROS with subsaturating succinate”. For the same compound, the “effect on mitochondrial respiration” value in experiment [2] is on record as “did not uncouple state 2 respiration; also recorded: does not show signs of uncoupling state 2 respiration at high concentrations”. As to `COc1cc(CN(CCN(C)C)Cc2ccccc2)cc(OC)c1` [Compound 31], in the experiment on site IQ (retest), the “effect on IQ ROS with subsaturating substrate” value is on record as “stronger off-target effects on IQ ROS when driven by low concentration succinate”. Take `O=C(O)CCC(=O)Nc1ccc(-c2nc3cc4ccccc4cc3[nH]2)cc1` [Compound 61]: the “effect on ΔΨm” value in experiment [1] is recorded as “increased off-target effect on ΔΨm in the absence of nigericin”. `Cc1ccc(C)c(CN(CCCN(C)C)CCCN(C)C)c1` [Compound 32]: the “effect on ΔΨm” value in experiment [1] is reported as “without any significant effects on membrane potential”. Further, the “effect on mitochondrial respiration” value in experiment [2] is on record as “increases ADP-stimulated respiration specifically with complex I substrates; also recorded: significantly increased state 3 respiration specifically with CI substrates”.

As for `O=[N+]([O-])c1ccc(Oc2ccc(S(=O)(=O)NC3CCCCC3)cc2)cc1` [Compound 4], the “effects on other major sites of ROS production” value in the experiment with site IQ (2.5 uM) is “without discernible effects on any other major sites within mitochondria”. Besides, the “effect on mitochondrial respiration” value in experiment [2] is recorded as “did not significantly inhibit or show signs of uncoupling respiration under any conditions except at 80 uM; also recorded: does not inhibit forward electron flow through CI”. Regarding `O=C(O)C1CCCCC1C(=O)NC1CCCCC1` (stereo not shown) [Compound 19], the “effect on IQ ROS with saturating substrate” value in the experiment on site IQ (retest, saturating substrate) is given as “unaffected until the highest concentration tested (80 μM)”. In the experiment with site IQ (retest), the “effect on IQ ROS with subsaturating substrate” value was “minimal effects on IQ ROS production driven with subsaturating substrate until 25 μM”. The “effect on mitochondrial respiration” value in experiment [2] was “inhibits ADP-stimulated respiration with complex I substrates; also recorded: no signs of uncoupling but did reveal a progressive inhibition of state 3 respiration (ATP producing) only with CI substrates”.
